Measured values taken from patent publication US11945813B2, “5-substituted 4-amino-1H-benzo[c][1,2,6]thiadiazine 2,2-dioxides and formulations and uses thereof” (Firmenich Incorporated, priority 2018, dated 2024).

Molecular target: T1, T1R2/T1R3 taste receptor (Homo sapiens, UniProt Q8TE23)
T1 sequence (Q8TE23 20-839): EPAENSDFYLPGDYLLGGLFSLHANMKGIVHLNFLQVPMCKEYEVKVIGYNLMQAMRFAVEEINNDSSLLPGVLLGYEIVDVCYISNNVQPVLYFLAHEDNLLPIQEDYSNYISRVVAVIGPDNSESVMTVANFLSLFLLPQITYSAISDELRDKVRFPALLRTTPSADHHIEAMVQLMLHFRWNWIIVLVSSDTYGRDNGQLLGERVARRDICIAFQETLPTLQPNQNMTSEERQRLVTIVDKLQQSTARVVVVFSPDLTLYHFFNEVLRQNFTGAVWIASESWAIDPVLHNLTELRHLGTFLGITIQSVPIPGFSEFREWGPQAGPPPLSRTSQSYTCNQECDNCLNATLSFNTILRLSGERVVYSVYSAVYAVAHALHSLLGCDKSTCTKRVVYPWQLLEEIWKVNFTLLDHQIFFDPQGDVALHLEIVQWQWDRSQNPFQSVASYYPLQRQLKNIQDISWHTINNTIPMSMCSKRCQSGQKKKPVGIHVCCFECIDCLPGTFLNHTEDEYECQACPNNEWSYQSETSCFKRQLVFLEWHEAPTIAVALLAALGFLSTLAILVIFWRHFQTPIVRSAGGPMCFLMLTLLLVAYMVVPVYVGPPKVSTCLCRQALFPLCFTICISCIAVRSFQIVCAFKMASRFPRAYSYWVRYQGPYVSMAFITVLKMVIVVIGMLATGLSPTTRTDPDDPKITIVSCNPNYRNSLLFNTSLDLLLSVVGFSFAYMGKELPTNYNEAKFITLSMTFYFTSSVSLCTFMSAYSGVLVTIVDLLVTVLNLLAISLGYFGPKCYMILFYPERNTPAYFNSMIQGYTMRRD
T1 sequence (Q7RTX0 21-852 partner): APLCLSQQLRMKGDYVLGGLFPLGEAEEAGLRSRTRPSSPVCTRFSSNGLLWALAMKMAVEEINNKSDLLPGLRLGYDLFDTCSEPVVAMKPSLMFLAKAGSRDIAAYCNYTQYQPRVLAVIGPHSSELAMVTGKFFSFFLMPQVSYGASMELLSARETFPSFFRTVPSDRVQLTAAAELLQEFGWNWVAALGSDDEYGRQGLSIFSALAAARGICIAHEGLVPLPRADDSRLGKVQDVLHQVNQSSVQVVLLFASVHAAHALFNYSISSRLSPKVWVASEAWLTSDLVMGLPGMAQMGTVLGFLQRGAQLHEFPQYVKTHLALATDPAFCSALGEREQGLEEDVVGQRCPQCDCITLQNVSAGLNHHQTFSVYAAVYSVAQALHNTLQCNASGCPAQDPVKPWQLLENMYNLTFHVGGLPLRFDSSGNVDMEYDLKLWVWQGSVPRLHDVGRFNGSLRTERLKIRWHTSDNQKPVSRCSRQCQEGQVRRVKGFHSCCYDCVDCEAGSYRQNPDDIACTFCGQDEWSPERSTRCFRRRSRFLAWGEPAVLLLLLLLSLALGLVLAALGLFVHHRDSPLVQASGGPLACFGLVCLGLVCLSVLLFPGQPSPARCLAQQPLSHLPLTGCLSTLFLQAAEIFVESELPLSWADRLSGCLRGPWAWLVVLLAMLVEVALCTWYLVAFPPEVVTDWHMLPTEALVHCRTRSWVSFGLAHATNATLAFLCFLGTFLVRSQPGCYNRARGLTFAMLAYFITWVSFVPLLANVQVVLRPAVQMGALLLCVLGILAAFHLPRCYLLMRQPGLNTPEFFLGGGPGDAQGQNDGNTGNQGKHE
Experiment: Receptor-based assay: sweetener EC50 alone and with test compound (enhancement ratio)
Assay type: cell-based
Conditions: for Fructose Enhancement EC50 Ratio: sweetener fructose; for Sucralose Enhancement EC50 Ratio: sweetener sucralose; for Sucrose Enhancement EC50 Ratio: sweetener sucrose
Description: Potencies (EC50 values) for the sweeteners sucrose, sucralose, and fructose were measured against the T1R2/T1R3 taste receptor. EC50 was determined using the sweetener alone and in the presence of 3 μM, 10 μM, or 50 μM of test compound. EC50 ratios were calculated by the ratio of potency with and without the test compound. An “A” value indicates an enhancement ratio of greater than 20. A “B” value indicates an enhancement ratio from 10 to 20. A “C” value indicates an enhancement ratio greater than 1 and less than 10.

SMILES | Fructose Enhancement EC50 Ratio (10 μM test compound) | Fructose Enhancement EC50 Ratio (50 μM test compound) | Sucralose Enhancement EC50 Ratio (10 μM test compound) | Sucralose Enhancement EC50 Ratio (50 μM test compound) | Sucrose Enhancement EC50 Ratio (3 μM test compound) | Sucrose Enhancement EC50 Ratio (10 μM test compound) | Sucrose Enhancement EC50 Ratio (50 μM test compound)
COCCNc1nccc(NC(C)(C)COc2cccc3c2C(N)=NS(=O)(=O)N3)n1 [Compound 206] | C (A “C” value indicates an enhancement ratio greater than 1 and less than 10) | C (A “C” value indicates an enhancement ratio greater than 1 and less than 10) | B (A “B” value indicates an enhancement ratio from 10 to 20) | A (An “A” value indicates an enhancement ratio of greater than 20) | C (A “C” value indicates an enhancement ratio greater than 1 and less than 10) | C (A “C” value indicates an enhancement ratio greater than 1 and less than 10) | C (A “C” value indicates an enhancement ratio greater than 1 and less than 10)
CCCNc1nccc(NC(C)(C)COc2cccc3c2C(N)=NS(=O)(=O)N3)n1 [Compound 208] | C (A “C” value indicates an enhancement ratio greater than 1 and less than 10) | C (A “C” value indicates an enhancement ratio greater than 1 and less than 10) | A (An “A” value indicates an enhancement ratio of greater than 20) | A (An “A” value indicates an enhancement ratio of greater than 20) | C (A “C” value indicates an enhancement ratio greater than 1 and less than 10) | C (A “C” value indicates an enhancement ratio greater than 1 and less than 10) | C (A “C” value indicates an enhancement ratio greater than 1 and less than 10)
Cc1cc(C)nc(N2CCC[C@H](COc3cccc4c3C(N)=NS(=O)(=O)N4)C2)n1 [Compound 300, (S)-4-amino-5-((1-(4,6-dimethylpyrimidin-2-yl)piperidin-3-yl)methoxy)-1H-benzo[c][1,2,6]thiadiazine 2,2-dioxide] | – | – | A (An “A” value indicates an enhancement ratio of greater than 20) | A (An “A” value indicates an enhancement ratio of greater than 20) | C (A “C” value indicates an enhancement ratio greater than 1 and less than 10) | C (A “C” value indicates an enhancement ratio greater than 1 and less than 10) | C (A “C” value indicates an enhancement ratio greater than 1 and less than 10)
NC1=NS(=O)(=O)Nc2cccc(OC[C@H]3CCCN(c4cccc(C(=O)O)n4)C3)c21 [Compound 301, (S)-6-(3-(((4-amino-2,2-dioxido-1H-benzo[c][1,2,6]thiadiazin-5-yl)oxy)methyl)piperidin-1-yl)picolinic acid] | – | – | A (An “A” value indicates an enhancement ratio of greater than 20) | A (An “A” value indicates an enhancement ratio of greater than 20) | C (A “C” value indicates an enhancement ratio greater than 1 and less than 10) | C (A “C” value indicates an enhancement ratio greater than 1 and less than 10) | C (A “C” value indicates an enhancement ratio greater than 1 and less than 10)
NC1=NS(=O)(=O)Nc2cccc(OC[C@H]3CCCN(c4ccc(C(=O)O)cn4)C3)c21 [Compound 302] | C (A “C” value indicates an enhancement ratio greater than 1 and less than 10) | C (A “C” value indicates an enhancement ratio greater than 1 and less than 10) | A (An “A” value indicates an enhancement ratio of greater than 20) | A (An “A” value indicates an enhancement ratio of greater than 20) | C (A “C” value indicates an enhancement ratio greater than 1 and less than 10) | C (A “C” value indicates an enhancement ratio greater than 1 and less than 10) | C (A “C” value indicates an enhancement ratio greater than 1 and less than 10)
NC1=NS(=O)(=O)Nc2cccc(OC[C@H]3CCCN(c4cc(C(=O)O)ccn4)C3)c21 [Compound 303] | – | C (A “C” value indicates an enhancement ratio greater than 1 and less than 10) | C (A “C” value indicates an enhancement ratio greater than 1 and less than 10) | A (An “A” value indicates an enhancement ratio of greater than 20) | C (A “C” value indicates an enhancement ratio greater than 1 and less than 10) | C (A “C” value indicates an enhancement ratio greater than 1 and less than 10) | C (A “C” value indicates an enhancement ratio greater than 1 and less than 10)
Cc1cnc(N2CCC[C@H](COc3cccc4c3C(N)=NS(=O)(=O)N4)C2)nc1 [Compound 304] | C (A “C” value indicates an enhancement ratio greater than 1 and less than 10) | C (A “C” value indicates an enhancement ratio greater than 1 and less than 10) | A (An “A” value indicates an enhancement ratio of greater than 20) | A (An “A” value indicates an enhancement ratio of greater than 20) | C (A “C” value indicates an enhancement ratio greater than 1 and less than 10) | C (A “C” value indicates an enhancement ratio greater than 1 and less than 10) | C (A “C” value indicates an enhancement ratio greater than 1 and less than 10)
NC1=NS(=O)(=O)Nc2cccc(OC[C@H]3CCCN(c4ncc(F)cn4)C3)c21 [Compound 305] | C (A “C” value indicates an enhancement ratio greater than 1 and less than 10) | C (A “C” value indicates an enhancement ratio greater than 1 and less than 10) | A (An “A” value indicates an enhancement ratio of greater than 20) | A (An “A” value indicates an enhancement ratio of greater than 20) | C (A “C” value indicates an enhancement ratio greater than 1 and less than 10) | C (A “C” value indicates an enhancement ratio greater than 1 and less than 10) | C (A “C” value indicates an enhancement ratio greater than 1 and less than 10)
